# Assay results: patent US5409946A, “Isoxazole, isothiazole and pyrazole compounds that enhance cognitive function” (Abbott Laboratories, priority 1993, dated 1995)
# Like-named read-outs stand apart in the source and are kept apart here.
# Legend:
# [1] = tested on: neuronal nicotinic cholinergic channels in PC12 cells; experiment: Cholinergic channel activator action in PC12 cells, whole-cell patch-clamp; type: cell-based, rat; conditions: 10 μM antagonist; Example 2 300 μM; N=3
# Experimental: Electrophysiologic recordings were obtained from differentiated (neurite-bearing) cells after 4-7 days exposure to NGF. […] After 20 minutes, differentiating medium was added (DMEM containing 100 ng/ml nerve growth factor, 5% heat-inactivated fetal calf serum and 2.5% heat-inactivated horse serum) and the cells were refed with this medium every 3 days.
# The intracellular (recording pipette) solution consisted of 140 mM KCl, 1.0 mM CaCl2, 2.0 mM MgCl2, 11 mM K-EGTA, and 10 mM K-HEPES buffer (7.3 pH, 315 mOsm). Osmolarities were adjusted using dextrose such that the extracellular solution was 10 mOsm hypertonic compared to the intracellular solution. Voltage-gated inward (sodium) and outward (potassium) currents were monitored throughout the experiment to determine establishment and maintenance of the whole-cell recording configuration.
# [2] = tested on: spike wave discharges; experiment: Attenuation of petit mal absence-like spike wave discharges (EEG); type: in vivo, male Wistar rats; conditions: for Total spike wave duration: 5.0 μmol/kg i.p.; for effect on incidence of spike wave discharges: i.p., 20 min waking immobility, p<0.05 where significant
# Experimental: Animals: Male albino rats of the Wistar strain (CAMM Research) were maintained on a 12:12 hour light-dark cycle and individually housed throughout these experiments. They were fed standard rodent diet with food and water provided ad libitum.
# EEG Recordings: To record spike wave discharges, rats were surgically implanted with permanently affixed EEG electrodes over the frontal codex using previously described techniques (Radek, Brain Res., 1993, in press). After at least a ten day recovery from this surgery, EEG recordings were made inside darkened sound attenuating chambers. Rats were allowed to move freely within the chambers and computerized activity monitors recorded animal motion during these studies. Only those rats that express spike wave discharges, as identified from preliminary recordings, were used to test the effects of nicotinic agents.
# Drug studies: EEG recordings were obtained from each rat for a period of 20 minutes of total waking immobility immediately after administration of drug, or a drug-free control solution. Immobility was characterized as the absence of infrared beam interruptions from the activity monitor system. Spike wave activity was identified as regular 6-10 Hz complexes with amplitudes of 0.4 to 1.0 mV. The total spindling duration for 20 minutes of waking immobility was calculated by determining the length (in seconds) of each spike wave burst, and adding each of these times together to obtain a total spindle time for the recording session. Each rat was administered the control solution and one or two doses of the test compounds and each dosing was given at least 48 hours after the previous treatment.
# The compound of Example 2 was dissolved in saline to the desired concentration.
# [3] = tested on: resting cortical perfusion in the parietotemporal cortex; conditions: humans; cited from earlier work
# [4] = tested on: ethanol-induced narcosis; conditions: literature knowledge; cited from earlier work
# [5] = cited from earlier work; for pharmacokinetics: in vivo
# [6] = biological target: neuronal nicotinic receptors; experiment: Displacement of [3H]-MCC or [3H]-cytisine from neuronal nicotinic receptors, whole rat brain membranes; type: binding
# Experimental: Binding of [^3 H]-methylcarbamylcholine ([^3 H]-MCC) or [^3 H]-cytisine ([^3 H]-CYT) to nicotinic receptors was accomplished using crude synaptic membrane preparations from whole rat brain (Snyder and Enna, Brain Research, 1975, 100:81). Washed membranes were stored at -80° C. prior to use. Frozen aliquots were slowly thawed and resuspended in 20 volumes of buffer (containing: 120 mM NaCl, 5 mM KCl, 2 mM MgCl2, 2 mM CaCl2 and 50 mM Tris-Cl, pH 7.4 @4° C). After centrifuging at 20,000 X g for 15 minutes, the pellets were resuspended in 30 volumes of buffer. Homogenate (containing 125-150 μg protein) was added to triplicate tubes containing concentrations of test compound and [^3 H]-MCC (3 nM) in a final volume of 500 μL. Samples were incubated for 60 minutes at 4° C., then rapidly filtered through Whatman GF/B filters presoaked in 0.5% polyethylimine using 3×4 mL of ice-cold buffer. Alternately, homogenate and test compound were incubated for 75 min with [^3 H]-CYT (1.3 nM), then rapidly filtered, as described above. The filters are counted in 4 mL of Ecolume® (ICN). […] IC50 values were determined with the ALLFIT nonlinear least squares curve-fitting program and IC50 values were converted to Ki values using the Cheng and Prusoff correction (Ki =IC50 /(1+[ligand]/Kd of ligand)). Alternately, data were expressed as a percentage of the total specific binding.
# [7] = biological target: muscarinic receptors; type: binding, rat; conditions: Table 2
# Experimental: The potencies of ligand binding at central muscarinic binding sites were determined by analysis of competition with the specific muscarinic receptor radioligand [^3 H]-quinuclidinyl benzilate ([^3 H]-QNB). […] Competition between various concentrations of putative nicotinic ligand compounds and 0.2 nM [^3 H]-QNB was performed at 25° C. in an assay volume of 1 mL. After 75 minutes, the bound radioligand was separated by vacuum filtration on Whatman GF/B glass fiber filters. Non-specific binding was defined as radioactivity remaining in the presence of 10 μM atropine. Competition curves were analyzed for Ki values as described above for binding to the nicotinic receptor.
# [8] = tested on: signs and symptoms of nicotine withdrawal; conditions: double-blind studies; cited from earlier work
# [9] = tested on: nicotinic receptors; conditions: chronic administration, without affecting affinity; cited from earlier work
# [10] = tested on: cognitive function; conditions: acutely and chronically administered; cited from earlier work
smiles,measurement,setting,value
"CNC1(C)C2CCC(C2)C1(C)C (stereo not drawn) [Mecamylamine, mecamylamine]",inhibition of the response to Example 2,[1],81±3%
same,Total spike wave duration,[2]; Table 10,45.7 ± 15.0 s
same,Total spike wave duration,[2]; Table 11,46.8 ± 6.4 s
same,effect on incidence of spike wave discharges,[2],did not affect the incidence of spike/wave discharges
same,blockade of agonist-induced lowering of spike wave discharges,[2]; mecamylamine with (-)-nicotine or Example 2,blocked the effects of both (-)-nicotine and the compound of Example 2
same,effect on resting cortical perfusion,[3],reduces resting cortical perfusion in the parietotemporal cortex of humans
CCCC(C)C1(CC)C(=O)NC(=O)NC1=O (stereo not drawn) [pentobarbital],effect on ethanol sleep time (known),[4],potentiate the effect of ethanol by increasing the sleep time
"COC(=O)C1=CCCN(C)C1 [Arecoline, reference compound]",pharmacokinetics,[5],unfavorable pharmacokinetics
same,Ki,"[6]; Table 1, read-out: Nicotinic Receptor Ki",59 nM
same,Ki,"[6]; Table 2, read-out: Nicotinic Ki",59 nM
same,Ki,[7],5000 nM
"CN1C(=O)CN=C(c2ccccc2)c2cc(Cl)ccc21 [Diazepam, diazepam]",effect on incidence of spike wave discharges,[2],significantly lowered these discharges
same,effect on ethanol sleep time (known),[4],potentiate the effect of ethanol by increasing the sleep time
CN1CCCC1c1cccnc1 (stereo not drawn) [nicotine],pharmacokinetics,[5],unfavorable pharmacokinetics
same,oral bioavailability,[5]; oral,poor oral bioavailability
same,suppression of withdrawal signs and symptoms versus placebo,[8],far superior to a placebo
same,up-regulation of number of receptors,[9],50-100%
same,effect on cognitive function,[10],enhances cognitive function in rats
